The text below walks through data of US6806276B2, “2-oxoquinoline compounds and pharmaceutical uses thereof” (Japan Tobacco Inc., priority 1999, dated 2004).

Counter-ions that a name gives are not always drawn. Like-named read-outs stand apart in the source and are kept apart here.

Usually Ki stands for the dissociation constant of the complex between target and ligand, obtained from inhibition or displacement.

For test [1], the target named is T1, human central type cannabinoid receptor (hCB1) (Homo sapiens, UniProt P21554).
T1 construct: expressed in transfected cells; host or cells: CHO cells
T1 sequence (P21554 whole entry): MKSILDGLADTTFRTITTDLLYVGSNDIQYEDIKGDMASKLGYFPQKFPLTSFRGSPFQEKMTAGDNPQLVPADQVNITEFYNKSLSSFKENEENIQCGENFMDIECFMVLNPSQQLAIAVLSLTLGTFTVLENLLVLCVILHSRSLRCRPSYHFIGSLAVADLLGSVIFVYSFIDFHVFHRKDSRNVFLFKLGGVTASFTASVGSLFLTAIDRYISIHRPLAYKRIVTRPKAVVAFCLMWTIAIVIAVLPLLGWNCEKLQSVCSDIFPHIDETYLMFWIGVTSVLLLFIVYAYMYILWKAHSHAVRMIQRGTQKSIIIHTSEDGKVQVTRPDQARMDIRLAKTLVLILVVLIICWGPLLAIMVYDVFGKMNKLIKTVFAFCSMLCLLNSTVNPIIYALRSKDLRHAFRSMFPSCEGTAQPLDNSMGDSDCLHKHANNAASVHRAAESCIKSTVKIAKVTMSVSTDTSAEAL
Description: Binding assay (in vitro), [3H]Win55212-2 displacement, membrane fractions of human CB1-CHO. The settings on record: hCB1 expressed in CHO cells, [3H]Win55212-2 2 nM, 30° C. 90 minutes.
Description: (§1) Membrane fractions of human central type cannabinoid receptor (human CB1-CHO, hereinafter called hCB1) and human peripheral type cannabinoid receptor (human CB2-CHO, hereinafter called hCB2) expressed in CHO cells were used as samples. The reference material (hCB1: 20 μg/ml, hCB2: 5 μg/ml), labeled ligand ([^3H]Win55212-2, 2 nM) and unlabeled ligand Win55212-2 or test compound were added to a 24-well round bottom plate, and the plate was incubated at 30° C. for 90 minutes. 50 mM Tris-HB55 containing 0.2% BSA was used as an assay buffer. After incubation, the mixture was filtered (Packard, Unifilter 24GF/B) and dried, and then a scintillation solution (Packard, Microsint-20) was added thereto to determine the radioactivity of the sample (Packard, Top count A9912V). Nonspecific binding was determined by the addition of excessive amount of Win55212-2 (10 μM), and specific binding was calculated by subtracting the nonspecific binding from total binding determined by the addition of the labeled ligand only. The test compound was dissolved in DMSO to make the final concentration in DMSO to be 0.1%. IC50 value was determined from the proportion of the bound test compound in the specific binding, and K1 value of the test compound was calculated from the ICso value and Kd value of [^3H]Win55212-2. K1 value for the central type receptors/K1 value for peripheral type receptors (C/S) was also calculated as an indicator of the selectivity of the test compound for peripheral type receptors.

Test [2] relates to carrageenin-induced paw edema. Description: Carrageenin-induced paw edema model (in vivo). Also on record: species or system C57BL/6J mice. The settings on record: mice, oral in olive oil 1 hour before carrageenin, paw volume 3 hours later. How it is done: [2] Carrageenin-induced paw edema model (in vivo)
C57BL/6J mice (6 to 8 weeks of age) were used. […] After one hour of the administration, 50 μl of 1% solution of carrageenin in normal saline was administered intradermally at foot pad of the right hind paw. Three hours later, the volume of the right hind paw was measured and compared with the initial volume.
On the technique in general: Carrageenan injected into the paw causes an acute inflammation.

Test [3] has as its target T2, human peripheral type cannabinoid receptor (hCB2) (Homo sapiens, UniProt P34972).
T2 construct: expressed in transfected cells; host or cells: CHO cells
Description: Binding assay (in vitro), [3H]Win55212-2 displacement, membrane fractions of human CB2-CHO. The settings on record: for Ki: hCB2 expressed in CHO cells, [3H]Win55212-2 2 nM, 30° C. 90 minutes; for C/S (Ki central type receptors / Ki peripheral type receptors): indicator of selectivity for peripheral type receptors.
Description: as §1

The mark [4] stands for this setting: read-out: Ki value Central type receptor (C).
Where [5] appears, read: Ki value Peripheral type receptor (S).
Setting [6] is: Ki value Central type receptor (C).
Where [7] appears, read: read-out: Ki value Peripheral type receptor (S).

T2 sequence (P34972 whole entry): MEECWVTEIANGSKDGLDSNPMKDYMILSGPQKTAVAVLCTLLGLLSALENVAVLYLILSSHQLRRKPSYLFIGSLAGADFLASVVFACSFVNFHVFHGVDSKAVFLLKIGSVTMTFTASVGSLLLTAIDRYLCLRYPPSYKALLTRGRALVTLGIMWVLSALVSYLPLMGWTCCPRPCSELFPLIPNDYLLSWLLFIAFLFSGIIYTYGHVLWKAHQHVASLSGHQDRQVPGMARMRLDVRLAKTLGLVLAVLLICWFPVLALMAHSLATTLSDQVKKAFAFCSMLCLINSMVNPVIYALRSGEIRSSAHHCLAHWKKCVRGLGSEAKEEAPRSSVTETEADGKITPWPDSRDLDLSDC

For `CCCCCOc1c(OC)ccc2cc(C(=O)NCc3ccc4c(c3)OCO4)c(=O)[nH]c12` [Example 3-5, 7-Methoxy-2-oxo-8-pentyloxy-1,2-dihydroquinoline-3-carboxylic acid (3,4-methylenedioxybenzyl)amide], the Ki in test [1] (setting [4]) was 3440 nM. Moreover, the ED50 in test [2] was <0.10 mg/kg; p.o.

For the molecule `CCCCOc1c(OC)ccc2cc(C(=O)NCCc3ccc(F)cc3)c(=O)[nH]c12` [Example 3-15, 8-butoxy-7-methoxy-2-oxo-1,2-dihydroquinoline-3-carboxylic acid [2-(4-fluorophenyl)ethyl]amide], the Ki was found to be 249 nM in test [1] (setting [4]) and 0.016 nM in test [3] (setting [5]). The “C/S (Ki central type receptors / Ki peripheral type receptors)” value in test [3] is reported as 15580. Moreover, the ED50 in test [2] was 0.41 mg/kg; p.o.

Take `CCCCOc1c(OC)ccc2cc(C(=O)NCCc3ccncc3)c(=O)[nH]c12` [Example 3-17, 8-butoxy-7-methoxy-2-oxo-1,2-dihydroquinoline-3-carboxylic acid (2-pyridine-4-ylethyl)amide hydrochloride]: the values for the Ki in test [1] (setting [4]) and in test [3] (setting [5]) were 199 nM and 0.23 nM, respectively. In addition, the “C/S (Ki central type receptors / Ki peripheral type receptors)” value in test [3] (hydrochloride) is recorded as 867. For the same molecule, the ED50 in test [2] was 1.39 mg/kg; p.o.

Regarding `CCCCCOc1c(OC)ccc2cc(C(=O)NCCc3ccc(Cl)cc3)c(=O)[nH]c12` [Example 3-22, 7-methoxy-2-oxo-8-pentyloxy-1,2-dihydroquinoline-3-carboxylic acid [2-(4-chlorophenyl)ethyl]amide], the Ki in test [1] (setting [6]) was found to be 135 nM; in test [3] (setting [5]) it was 0.2 nM. The “C/S (Ki central type receptors / Ki peripheral type receptors)” value in test [3] came out at 675. Besides, the ED50 in test [2] is listed as 0.76 mg/kg; p.o.

For the molecule `CCCOc1c(OC)ccc2cc(C(=O)NCCc3ccncc3)c(=O)[nH]c12` [Example 3-26, 7-methoxy-2-oxo-8-propoxy-1,2-dihydroquinoline-3-carboxylic acid (2-pyridine-4-ylethyl)amide], the Ki in test [1] (setting [4]) came out at 648 nM; in test [3] (setting [7]), 0.23 nM. In addition, in test [3], the “C/S (Ki central type receptors / Ki peripheral type receptors)” value is 2817. Moreover, the ED60 in test [2] was 1.32 mg/kg; p.o.

Regarding `CCCOc1c(OC)ccc2cc(C(=O)NCCc3ccc(F)cc3)c(=O)[nH]c12` [Example 3-27, 7-methoxy-2-oxo-8-propoxy-1,2-dihydroquinoline-3-carboxylic acid [2-(4-fluorophenyl)ethyl]amide], the Ki in test [1] (setting [4]) was 336 nM; in test [3] (setting [7]), 0.021 nM. Besides, the “C/S (Ki central type receptors / Ki peripheral type receptors)” value in test [3] is reported as 15990. Moreover, the ED60 in test [2] was 0.53 mg/kg; p.o.

`CCCCCOc1c(OC)ccc2cc(C(=O)NCCc3ccncc3)c(=O)n(C)c12` [Example 3-37, 1-methyl-7-methoxy-2-oxo-8-pentyloxy-1,2-dihydroquinoline-3-carboxylic acid (2-pyridine-4-ylethyl)amide]: the Ki in test [1] (setting [6]) worked out at 78 nM; in test [3] (setting [5]), 0.75 nM. Besides, in test [3], the “C/S (Ki central type receptors / Ki peripheral type receptors)” value was 104. Besides, the ED60 in test [2] is on record as 0.63 mg/kg; p.o.

For `CCCCCOc1c(OC)ccc2cc(C(=O)NCCN3CCOCC3)c(=O)n(C)c12` [Example 3-38, 1-methyl-7-methoxy-2-oxo-8-pentyloxy-1,2-dihydroquinoline-3-carboxylic acid (2-morpholinoethyl) amide], the Ki worked out at 935 nM in test [1] (setting [4]) and 0.085 nM in test [3] (setting [5]). Besides, in test [3], the “C/S (Ki central type receptors / Ki peripheral type receptors)” value stood at 11002. Further, the ED60 in test [2] is 2.24 mg/kg; p.o.

With `CCCCCOc1c(OC)ccc2cc(C(=O)NCc3ccc(F)cc3)c(=O)n(C)c12` [Example 3-40, 1-methyl-7-methoxy-2-oxo-8-pentyloxy-1,2-dihydroquinoline-3-carboxylic acid (4-fluorobenzyl)amide], the inhibition constant (Ki) in test [1] (setting [4]) was found to be 703 nM; in test [3] (setting [5]), 2.13 nM. Also, in test [3], the “C/S (Ki central type receptors / Ki peripheral type receptors)” value turned out to be 330. Further, in test [2], the ED60 is listed as 1.19 mg/kg; p.o.
